{"source": "patent EP4631931A1", "about": "“HDAC INHIBITOR AND USE THEREOF” (Wigen Biomedicine Technology (Shanghai) Co., Ltd., priority 2022, dated 2024)", "key": {"HDAC10": {"biological_target": "T1, HDAC10 (Homo sapiens, UniProt Q969S8)", "T1 sequence (Q969S8 1-669)": "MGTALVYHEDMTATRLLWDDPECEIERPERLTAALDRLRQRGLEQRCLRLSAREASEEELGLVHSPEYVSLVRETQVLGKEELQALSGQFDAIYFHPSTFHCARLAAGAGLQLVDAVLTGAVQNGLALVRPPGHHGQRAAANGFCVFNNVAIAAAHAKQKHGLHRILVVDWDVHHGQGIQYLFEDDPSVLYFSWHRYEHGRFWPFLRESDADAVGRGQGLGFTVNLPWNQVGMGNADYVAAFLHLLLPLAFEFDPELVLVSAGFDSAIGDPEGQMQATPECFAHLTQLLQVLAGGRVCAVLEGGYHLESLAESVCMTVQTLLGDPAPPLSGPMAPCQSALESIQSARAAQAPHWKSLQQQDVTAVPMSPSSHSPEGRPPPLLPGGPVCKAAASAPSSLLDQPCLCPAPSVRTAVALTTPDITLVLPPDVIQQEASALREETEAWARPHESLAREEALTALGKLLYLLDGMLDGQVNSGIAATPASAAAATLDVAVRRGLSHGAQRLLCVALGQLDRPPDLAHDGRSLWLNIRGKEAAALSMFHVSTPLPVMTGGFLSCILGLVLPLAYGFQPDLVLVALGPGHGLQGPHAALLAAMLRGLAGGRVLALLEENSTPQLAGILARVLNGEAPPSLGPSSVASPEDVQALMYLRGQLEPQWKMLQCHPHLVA", "assay": "HDAC enzyme inhibition, fluorometric assay", "assay_type": "biochemical", "settings": "read-out: Inhibitory activity against HDAC10 (IC50)", "procedure": "Serially diluted DMSO sample solutions were added to the reaction wells, enzymes were added to a 384-well plate, and a reaction buffer was added to the control wells. The plate was incubated at room temperature for 15 min. After the fluorogenic substrate solution was added, the reaction was started. Fluorescence intensity readings (excitation: 355 nm, emission: 460 nm) were recorded every minute for 60 min using a Paradigm detector, and the slope values were calculated. Inhibition rate (%) = (maximum value - sample value)/(maximum value - minimum value) × 100%. The IC50 values were obtained by fitting a curve using the equation: Y = Bottom + (Top - Bottom)/(1 + (IC50/X)^HillSlope), where Y represents the inhibition rate and X represents the concentration of the compound. Table 10. Inhibitory activity of compound of the present disclosure against HDAC1, HDAC2, HDAC3, and HDAC10 (IC50, nM)"}, "HeLa cells": {"system": "HeLa cells", "assay": "Intracellular acetyl lysine / H3K 27 acetyl lysine level by ELISA", "assay_type": "cell-based", "settings": "24 h of treatment", "procedure": "HeLa cells were seeded into a 96-well plate at 20000 cells/well. After overnight adherence culture, the serially diluted compound was added. After 24 h of treatment, intracellular levels of acetyl lysine and H3K 27 acetyl lysine were quantified by ELISA. Table 9. Effect of compound of the present disclosure on levels of acetyl lysine and H3K 27 acetyl lysine"}, "[1]": {"assay": "Pharmacokinetic experiment in mice", "assay_type": "in vivo, CD-1 female mice", "settings": "female, CD-1, mouse, plasma; for Vd: read-out: Vdss", "procedure": "CD-1 female mice aged 7 to 10 weeks were intravenously administered and orally administered at doses of 1 mg/kg and 10 mg/kg, respectively. The mice were fasted for at least 12 h before the administration and given food 4 h after the administration, and they were given ad libitum access to water during the experiment.\nOn the day of the experiment, animals in the intravenous group were given the corresponding compound by single injection via the tail vein at an administration volume of 10 mL/kg; and animals in the oral group were given the corresponding compound by single intragastric injection at an administration volume of 10 mL/kg. The animals were weighed before administration, and the administration volume was calculated according to the body weight. The sample collection time points were 0.083 h, 0.167 h, 0.5 h, 1 h, 2 h, 4 h, 8 h, and 24 h. About 200 µL of whole blood was collected through the orbital venous plexus at each time point and used to prepare plasma for concentration determination by high-performance liquid chromatography-tandem mass spectrometry (LC-MS/MS). The plasma concentrations were processed using a non-compartmental model of Winnolin pharmacokinetic software, and the pharmacokinetic parameters were calculated using a linear-log trapezoidal method. Table 13. Results of in vivo pharmacokinetic evaluation of compounds of the present disclosure"}, "Jurkat cell": {"system": "Jurkat cell", "assay": "Inhibition of Jurkat cell proliferation (CTG, intracellular ATP)", "assay_type": "cell-based", "settings": "Homo sapiens, 72 h, compared to DMSO group, read-out: Inhibitory activity against Jurkat cell proliferation (IC50)", "procedure": "Jurkat or 293T cells were seeded into a 96-well plate at 3000 cells/well. After overnight adherence culture, the serially diluted compound in DMSO was added. After 72 h, the intracellular ATP level was determined by CTG. The IC50 for the inhibition of cell proliferation by the compounds was calculated compared to the DMSO group. Table 8. Inhibitory activity of compounds of the present disclosure against Jurkat/293T cell proliferation (IC50, µM)"}, "[2]": {"system": "Mouse colon cancer MC38 cells", "assay": "In vivo efficacy in MC-38 model", "set-up": "species or system C57BL6N mice", "settings": "small molecules 15mg/kg PO QD, PD-1 1mg/kg IV QW, BDO 2mg/kg IP QW, 21 days; for TGI(%): 6 mice per group", "procedure": "Female C57BL6N mice (aged 6 weeks, 18-22 g) were provided by Vital River Laboratory Animal Technology Co., Ltd. (China) and used one week after quarantine and acclimation. All animals were kept in a room at 23±2 °C with a relative humidity of 50±5%, artificial lighting was provided from 08:00 to 20:00 every day, and the air was exchanged 13-18 times per hour. Mouse colon cancer MC38 cells were cultured conventionally in 1640 medium containing 10% fetal bovine serum in an incubator at 37 °C with 5% CO2. After being subcultured, the cells were collected when they reached the desired amount. The C57BL6N mice were subcutaneously injected with 2 × 10^6 MC38 cells on the right side to form tumors. After the tumors grew to about 100 mm^3, the animals were randomly grouped for administration. Tumor volumes were measured with a caliper on day 3, day 7, day 10, day 14, day 17, and day 21 after the administration. […] The toxicity of the compounds was evaluated according to the body weight and state of the mice.\nTable 15. In vivo efficacy of some of the compounds of the present disclosure in MC-38 model"}, "[3]": {"settings": "Injection (1 mg/kg), intravenous"}}}
{"smiles": "Nc1cc(F)ccc1NC(=O)c1ccc(CNC(=O)/C=C/c2cccnc2)cc1", "note": "[Chidamide, reference compound]", "values": [{"measurement": "IC50", "setting": "HDAC10", "value": 318, "unit": "nM"}, {"measurement": "Acetyl lysine Maximum (%)", "setting": "HeLa cells", "value": 420, "unit": "%"}, {"measurement": "Acetyl lysine Minimum effective concentration", "setting": "HeLa cells", "value": 80, "unit": "nM"}, {"measurement": "H3K 27 Acetyl lysine Maximum (%)", "setting": "HeLa cells", "value": 380, "unit": "%"}, {"measurement": "H3K 27 Acetyl lysine Minimum effective concentration", "setting": "HeLa cells", "value": 80, "unit": "nM"}, {"measurement": "AUC(0-t)", "setting": "[1]; [3]", "value": 539, "unit": "ng·h/mL"}, {"measurement": "clearance", "setting": "[1]; [3]", "value": 33.9, "unit": "mL/min/kg"}, {"measurement": "half-life", "setting": "[1]; [3]", "value": 2.03, "unit": "h"}, {"measurement": "Vd", "setting": "[1]; [3]", "value": 1.55, "unit": "L/kg"}, {"measurement": "AUC(0-t)", "setting": "[1]; Oral administration (10 mg/kg)", "value": 2490, "unit": "ng·h/mL"}, {"measurement": "Cmax", "setting": "[1]; Oral administration (10 mg/kg)", "value": 3750, "unit": "ng/mL"}, {"measurement": "Tmax", "setting": "[1]; Oral administration (10 mg/kg)", "value": 0.17, "unit": "h"}, {"measurement": "bioavailability", "setting": "[1]; Oral administration (10 mg/kg)", "value": 46.1, "unit": "%"}, {"measurement": "half-life", "setting": "[1]; Oral administration (10 mg/kg)", "value": 3.51, "unit": "h"}, {"measurement": "IC50", "setting": "Jurkat cell", "value": 1620, "unit": "nM"}, {"measurement": "Change in body weight", "setting": "[2]", "value": "+21.1%"}, {"measurement": "TGI(%)", "setting": "[2]", "value": 8.9, "unit": "%"}]}
{"smiles": "[2H]c1cc(C(=O)Nc2ccc(F)cc2N)ccc1CNC(=O)/C=C/c1cccnc1", "note": "[Compound 5, (E)-N-(2-amino-4-fluorophenyl)-4-((3-(pyridin-3-yl)acrylamido)methyl)-3-d benzamide]", "values": [{"measurement": "IC50", "setting": "HDAC10", "value": 127, "unit": "nM"}, {"measurement": "Acetyl lysine Maximum (%)", "setting": "HeLa cells", "value": 350, "unit": "%"}, {"measurement": "Acetyl lysine Minimum effective concentration", "setting": "HeLa cells", "value": 16, "unit": "nM"}, {"measurement": "H3K 27 Acetyl lysine Maximum (%)", "setting": "HeLa cells", "value": 420, "unit": "%"}, {"measurement": "H3K 27 Acetyl lysine Minimum effective concentration", "setting": "HeLa cells", "value": 80, "unit": "nM"}, {"measurement": "AUC(0-t)", "setting": "[1]; [3]", "value": 453, "unit": "ng·h/mL"}, {"measurement": "clearance", "setting": "[1]; [3]", "value": 36.8, "unit": "mL/min/kg"}, {"measurement": "half-life", "setting": "[1]; [3]", "value": 1.28, "unit": "h"}, {"measurement": "Vd", "setting": "[1]; [3]", "value": 1.13, "unit": "L/kg"}, {"measurement": "AUC(0-t)", "setting": "[1]; Oral administration (10 mg/kg)", "value": 2360, "unit": "ng·h/mL"}, {"measurement": "Cmax", "setting": "[1]; Oral administration (10 mg/kg)", "value": 1330, "unit": "ng/mL"}, {"measurement": "Tmax", "setting": "[1]; Oral administration (10 mg/kg)", "value": 0.17, "unit": "h"}, {"measurement": "bioavailability", "setting": "[1]; Oral administration (10 mg/kg)", "value": 52, "unit": "%"}, {"measurement": "half-life", "setting": "[1]; Oral administration (10 mg/kg)", "value": 3.13, "unit": "h"}, {"measurement": "IC50", "setting": "Jurkat cell", "value": 590, "unit": "nM"}, {"measurement": "Change in body weight", "setting": "[2]", "value": "+24.2%"}, {"measurement": "TGI(%)", "setting": "[2]", "value": 12.2, "unit": "%"}]}
